Laboratory results reported in US7459446B2, “Treatment of diabetes with copper binding compounds” (priority 1998, dated 2008).
pIC50: −log10 of the molar value. Like-named read-outs stand apart in the source and are kept apart here. Marks after values point to notes of the source that are not given here.

Legend:
[1] = test system: fructosamine oxidase; assay: fructosamine oxidase inhibition assay in human sera (ferricytochrome c, g-BSA substrate); assay type: biochemical
Text: The effectiveness of the inhibitor was expressed not by an equilibrium constant but by a velocity constant (K) which determined the fraction of the enzyme inhibited in a given period of time by a certain concentration of inhibitor.

[2] = test system: fructosamine oxidase; assay: as above; assay type: biochemical; conditions: read-out: IC50 (concentration of inhibitor causing 50% inactivation of the enzyme)
[3] = cited from earlier work; for bioavailability: oral administration
[4] = test system: streptozocin-diabetic rat (STZ rat); assay: First preclinical study: intravenous streptozotocin diabetic rat, 8 months; assay type: in vivo, Wistar rats; conditions: for Survivors at week 32 / mean weight change amongst surviving study animals: rat, in vivo; for Glucose: week 4, mean±SD; for Glucose / HbA1c: 50 mg/L in drinking water; for HbA1c: week 32, mean±SD
[5] = cited from earlier work
[6] = test system: streptozocin-diabetic rat (STZ rat); assay: Second preclinical study: intraperitoneal streptozotocin diabetic rat, 6 months; assay type: in vivo, Wistar rats; set-up: Mean ± SEM weight gain: unit not given here; conditions: for Mean ± SEM weight gain: beginning to end of the 24 week period; for effect on weight gain (in words): compared with untreated STZ diabetic control rats, 6-month period; for % with cataract / No with cataract: gross cataract formation; for % with cataract / No with cataract / No with severe fibrosis: week 24; for No with severe fibrosis: gross myocardial fibrosis; for mortality rate: rat, in vivo
[7] = beagle dogs, cited from earlier work
[8] = solutions exposed to light at room temperature, 24 hours; cited from earlier work
[9] = fresh human sera, 0-1,000 μM inhibitor, 0.05 M TES buffer pH 7.4, 37° C., 5 minutes

CCOC(=O)[C@H](CCc1ccccc1)N[C@@H](C)C(=O)N1CCC[C@H]1C(=O)O [enalapril]
K (velocity/rate constant) ([1]; 1.0 μM inhibitor): 0.0326 min⁻¹
pIC50 [2, 9]: 5.40

N/N=C(\N)NN [diaminoguanidine]
K (velocity/rate constant) [1]: 0.1340 min⁻¹
pIC50 ([2]; pH 7.4): 6.44

O=C(O)CN(CCN(CC(=O)O)CC(=O)O)CC(=O)O [EDTA, ethylenediamine tetraacetic acid]
bioavailability [3]: less than 5%
Survivors at week 32 [4]: 5
mean weight change amongst surviving study animals [4]: +1.2%
Glucose [4]: 39.0 ± 6.04 mmol/L
HbA1c [4]: 9.30 ± 0.63%
K (velocity/rate constant) ([1]; 10.0 μM inhibitor (*)): 0.0755* min^−1
pIC50 ([2]; pH 7.4): 4.80

CC(=O)N[C@H](C(=O)O)C(C)(C)S [acetylpenicillamine]
K (velocity/rate constant) ([1]; 1.0 μM inhibitor): 0.0811 min⁻¹
pIC50 [2, 9]: 5.97

NCCCC[C@H](N[C@@H](CCc1ccccc1)C(=O)O)C(=O)N1CCC[C@H]1C(=O)O [lisinopril]
K (velocity/rate constant) ([1]; 1.0 μM inhibitor): 0.0174 min⁻¹
pIC50 [2, 9]: 3.66

N[C@@H](Cc1c[nH]cn1)C(=O)O [histidine]
K (velocity/rate constant) ([1]; 1.0 μM inhibitor): 0.0554 min⁻¹
pIC50 [2, 9]: 5.64

NNc1nncc2ccccc12 [hydralazine]
Survivors at week 32 [4]: 6
mean weight change amongst surviving study animals [4]: −11.0%
Glucose [4]: 35.7 ± 9.5 mmol/L
HbA1c [4]: 8.65 ± 1.18%
bioavailability ([5]; man, oral administration): 26-55%
drug excreted in the urine unchanged ([5]; over 24 hours after oral administration): 2.0-3.6%

NNC(N)=O [semicarbazide]
K (velocity/rate constant) [1]: 0.0276* min^−1
pIC50 ([2]; pH 7.4): 4.35

NC(CO)C(=O)NNCc1ccc(O)c(O)c1O (centres unmarked) [benserazide]
K (velocity/rate constant) ([1]; 10.0 μM inhibitor (*)): 0.0095* min^−1
pIC50 [2, 9]: 4.87

c1cnc2c(c1)ccc1cccnc12 [o-phenathroline]
K (velocity/rate constant) ([1]; 1.0 μM inhibitor): 0.0385 min⁻¹
pIC50 [2, 9]: 5.37

NNC(=O)C(=O)NN [oxalic dyhydrazide]
K (velocity/rate constant) ([1]; 1.0 μM inhibitor): 0.0542 min⁻¹
pIC50 [2, 9]: 5.80

CC(=O)N[C@@H](CS)C(=O)O [acetylcysteine]
Survivors at week 32 [4]: 7
mean weight change amongst surviving study animals [4]: −8.1%
Glucose [4]: 37.8 ± 5.2 mmol/L
HbA1c [4]: 9.47 ± 1.23%
K (velocity/rate constant) ([1]; 1.0 μM inhibitor): 0.1677 min⁻¹
pIC50 ([2]; pH 7.4): 6.08

N=C(N)NN [aminoguanidine]
K (velocity/rate constant) ([1]; 10.0 μM inhibitor (*)): 0.0067* min^−1
pIC50 [2, 9]: 3.64

CC(=O)N(O)CCCCCNC(=O)CCC(=O)N(O)CCCCCNC(=O)CCC(=O)N(O)CCCCCN [desferrioxamine]
K (velocity/rate constant) ([1]; 10.0 μM inhibitor (*)): 0.0109* min^−1
pIC50 ([2]; pH 7.4): 4.39

NNc1ccccc1 [phenylhydrazine]
K (velocity/rate constant) [1]: 0.1160 min⁻¹
pIC50 ([2]; pH 7.4): 6.09

C[C@@](Cc1ccc(O)c(O)c1)(NN)C(=O)O [carbidopa]
K (velocity/rate constant) ([1]; 1.0 μM inhibitor): 0.1496 min⁻¹
HbA1c ([6]; Week 4, mean±SD): 9.0 ± 1.0
HbA1c ([6]; Week 12, mean±SD): 9.6 ± 0.7
HbA1c ([6]; Week 24, mean±SD): 9.9 ± 1.1
Mean ± SEM weight gain [6]: 33.7 ± 20.4
effect on weight gain (in words) [6]: ineffective
% with cataract [6]: 25%
No with cataract [6]: 2
No with severe fibrosis [6]: 2
mortality rate [6]: 0%
absolute bioavailability ([7]; oral): 88%
biological half-life [7]: 5 hours
oral absorption [7]: almost complete
pIC50 ([2]; pH 7.4): 6.30
oxidative degradation [8]: 50%

C[C@H](CS)C(=O)N1CCC[C@H]1C(=O)O [captopril]
binding in vivo to albumin and other plasma proteins ([3]; in vivo): almost completely bound
bioavailability [3]: approximately 65%
K (velocity/rate constant) ([1]; 1.0 μM inhibitor): 0.0259 min⁻¹
HbA1c ([6]; Week 4, mean±SD): 8.5 ± 0.9
HbA1c ([6]; Week 12, mean±SD): 9.2 ± 1.1
HbA1c ([6]; Week 24, mean±SD): 9.4 ± 01.3
Mean ± SEM weight gain [6]: 60.7 ± 20.7
effect on weight gain (in words) [6]: ineffective
% with cataract [6]: 25%
No with cataract [6]: 2
No with severe fibrosis [6]: 6
mortality rate [6]: 0%
pIC50 ([2]; pH 7.4): 5.75
